Read-outs that look alike come from different tables or passages of the source. Some results are limits rather than exact numbers.

Holding throughout (format): in vivo
The subject of assay [1] is Puccinia triticina. Nature of the assay: Wheat brown rust (PUCCRT), disease control on wheat seedlings. As to conditions: low volume application at 121.5 g/H. The method in brief:
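Compounds in acetone, diluted with nine volumes of water containing 110 ppm Triton X-100, sprayed to run-off on first-leaf Yuma wheat seedlings; track-spray tests used EC formulations with 0.1% Trycol 5941. Puccinia triticina spores applied before or after treatment. Overnight dark dew room at 22° C, 100% humidity, then greenhouse at 24° C.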

Assay [2] has as its system Magnaporthe grisea; Anamorph: Pyricularia oryzae. Nature of the assay: whole plant or invertebrate. As to conditions: 24 h, read-out: PYRIOR Disease Control.
Assay [3] has as its system Cercospora beticola. The experiment in a line: Leaf spot of sugar beets (CERCBE), disease control on sugar beet plants. The following applies: 1DP test at 100 ppm, read-out: CERCBE disease control rating. As to the method:
Technical grades of materials were dissolved in acetone, which were then mixed with nine volumes of water containing 110 ppm Triton X-100. The fungicide solutions were applied onto wheat seedlings using an automated booth sprayer to run-off. All sprayed plants were allowed to air dry prior to further handling. All fungicides were evaluated using the aforementioned method for their activity vs. all target diseases, unless stated otherwise. Wheat leaf blotch and brown rust activity were also evaluated using track spray applications, in which case the fungicides were formulated as EC formulations, containing 0.1% Trycol 5941 in the spray solutions. Sugar beet plants (variety HH88) were grown in soil-less Metro mix and trimmed regularly to maintain a uniform plant size prior to test. Plants were inoculated with a spore suspension 24 hr after fungicide treatments. Inoculated plants were kept in a dew chamber at 22° C. for 48 hr then incubated in a greenhouse set at 24° C. under a clear plastic hood with bottom ventilation until disease symptoms were fully expressed. Fungicide formulation, application and disease assessment on the sprayed leaves followed the procedures as described in the Example A.

Assay [4] concerns Pseudoperonospora cubensis. Nature of the assay: Cucumber downy mildew (PSPECU), disease control on cucumber seedlings. The following applies: 24 h, 1DP (1 Day Protectant) test at 100 ppm. As for the experimental part: Technical grades of materials were dissolved in acetone, which were then mixed with nine volumes of water containing 110 ppm Triton X-100. The fungicide solutions were applied onto wheat seedlings using an automated booth sprayer to run-off. All sprayed plants were allowed to air dry prior to further handling. All fungicides were evaluated using the aforementioned method for their activity vs. all target diseases, unless stated otherwise. Wheat leaf blotch and brown rust activity were also evaluated using track spray applications, in which case the fungicides were formulated as EC formulations, containing 0.1% Trycol 5941 in the spray solutions. Cucumber seedlings (variety Bush Pickle) were grown in soil-less Metro mix, with one plant per pot, and used in the test when 12 to 14 days old. Plants were inoculated with a spore suspension 24 hr following fungicide treatments. Test plants were inoculated with an aqueous spore suspension of Pseudoperonospora cubensis 24 hr after fungicide treatments. After inoculation the plants were kept in a dew room at 22° C. with 100% relative humidity for 24 hr to permit spores to germinate and infect the leaf. The plants were then transferred to a greenhouse set at 20° C. until disease was fully expressed. Fungicide formulation, application and disease assessment on the sprayed leaves followed the procedures as described in the Example A.

Assay [5] relates to Glomerella lagenarium; Anamorph: Colletotrichum lagenarium. Nature of the assay: Cucumber anthracnose (COLLLA), disease control on cucumber seedlings. As to conditions: Colletotrichum orbiculare, 1DP test at 100 ppm, read-out: COLLLA disease control rating. As for the experimental part: Technical grades of materials were dissolved in acetone, which were then mixed with nine volumes of water containing 110 ppm Triton X-100. The fungicide solutions were applied onto wheat seedlings using an automated booth sprayer to run-off. All sprayed plants were allowed to air dry prior to further handling. All fungicides were evaluated using the aforementioned method for their activity vs. all target diseases, unless stated otherwise. Wheat leaf blotch and brown rust activity were also evaluated using track spray applications, in which case the fungicides were formulated as EC formulations, containing 0.1% Trycol 5941 in the spray solutions. Cucumber seedlings (variety Bush Pickle) were propagated in soil-less Metro mix, with each pot having one plant, and used in the test when 12 to 14 days old. Test plants were inoculated with an aqueous spore suspension of Colletotrichum lagenarium 24 hr after fungicide treatments. After inoculation the plants were kept in a dew room at 22° C. with 100% relative humidity for 48 hr to permit spores to germinate and infect the leaf. The plants were then transferred to a growth room set at 22° C. for disease to develop. Fungicide formulation, application and disease assessment on the sprayed leaves followed the procedures as described in the Example A.

Assay [6] has as its system Rhyncosporium secalis. The experiment in a line: Barley scald (RHYNSE), disease control on barley seedlings. As to conditions: Hordeum vulgare, 24 h, 1DP (1 Day Protectant) test at 100 ppm. As to the method: Technical grades of materials were dissolved in acetone, which were then mixed with nine volumes of water containing 110 ppm Triton X-100. The fungicide solutions were applied onto wheat seedlings using an automated booth sprayer to run-off. All sprayed plants were allowed to air dry prior to further handling. All fungicides were evaluated using the aforementioned method for their activity vs. all target diseases, unless stated otherwise. Wheat leaf blotch and brown rust activity were also evaluated using track spray applications, in which case the fungicides were formulated as EC formulations, containing 0.1% Trycol 5941 in the spray solutions. Barley seedlings (variety Harrington) were propagated in soil-less Metro mix, with each pot having 8 to 12 plants, and used in the test when first leaf was fully emerged. Test plants were inoculated by an aqueous spore suspension of Rhyncosporium secalis 24 hr after fungicide treatments. After inoculation the plants were kept in a dew room at 20° C. with 100% relative humidity for 48 hr. The plants were then transferred to a greenhouse set at 20° C. for disease to develop. Fungicide formulation, application and disease assessment on the sprayed leaves followed the procedures as described in the Example A.

Assay [7] concerns Phakopsora pachyrhizi. The experiment in a line: Asian soybean rust (PHAKPA), disease control on soybean seedlings. The following applies: High volume application at 25 ppm. In a few lines: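 Two-week-old Williams 82 soybean seedlings were sprayed to run-off with compound in acetone/water (1:9) containing 0.011% Tween 20. Inoculation was 3 days before (curative) or 1 day after (protectant) treatment, followed by 24 h dark dew at 22 °C, 100% RH, then 23 °C; disease severity scored on sprayed leaves.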

Where [8] appears, read: 24 h, 1 Day Protectant, wheat brown rust, read-out: PUCCRT 1DP disease control, LV activity.
Setting [9] is: 72 h, 3 Day Curative, wheat brown rust, read-out: PUCCRT 3DC disease control, LV activity.
The mark [10] stands for this setting: 24 h, 1 Day Protectant, read-out: PHAKPA 1DP disease control rating.
The mark [11] stands for this setting: 72 h, 3 Day Curative, read-out: PHAKPA 3DC disease control rating.
The mark [12] stands for this setting: 24 h, 1 Day Protectant, read-out: PUCCRT disease control, 1DP, LV activity.
Where [13] appears, read: 72 h, 3 Day Curative, read-out: PUCCRT disease control, 3DC, LV activity.

`COc1ccnc(C(=O)N[C@@H](C)C(=O)O[C@@H](C)[C@H](c2ccc(F)cc2C)C(C)C)c1OC(=O)OC(C)C` [Compound 373]: the pest or weed control at 121.5 g/ha was over 80% in assay [1] (setting [8]) and under 80% in assay [1] (setting [9]). The pest or weed control at 100 ppm was under 80% in assay [2]; over 80% in assay [3]; under 80% in assay [4]; over 80% in assay [5]; under 80% in assay [6]. Also, the pest or weed control at 25 ppm in assay [7] (setting [10]) and in assay [7] (setting [11]) was over 80% in each case.

In the case of `COc1ccnc2c(=O)n([C@@H](C)C(=O)O[C@@H](C)[C@H](c3ccc(F)cc3C)C(C)C)c(=O)oc12` [Compound 217], the pest or weed control at 121.5 g/ha in assay [1] (setting [12]) and in assay [1] (setting [13]) was over 80% throughout. For the same compound, the pest or weed control at 100 ppm was over 80% in assay [2]; over 80% in assay [3]; under 0% in assay [4]; under 0% in assay [5]; under 80% in assay [6]. The pest or weed control at 25 ppm in assay [7] (setting [10]) and in assay [7] (setting [11]) was over 80% each time.

On to `COc1ccnc(C(=O)N[C@@H](C)C(=O)O[C@@H](C)[C@H](c2cccc(F)c2C)C(C)C)c1OC(C)=O` [Compound 359], for which the pest or weed control at 121.5 g/ha in assay [1] (setting [12]) and in assay [1] (setting [13]) was over 80% throughout. In addition, the pest or weed control at 100 ppm in assay [2] is over 80%; in assay [3], over 80%; in assay [4], under 80%; in assay [5], over 80%; in assay [6], over 80%. Further, the pest or weed control at 25 ppm in assay [7] (setting [10]) and in assay [7] (setting [11]) was over 80% each time.

On to `COCCC(=O)Oc1c(OC)ccnc1C(=O)N[C@@H](C)C(=O)O[C@@H](C)[C@H](c1ccc(F)cc1C)C(C)C` [Compound 220], for which the pest or weed control at 121.5 g/ha in assay [1] (setting [12]) and in assay [1] (setting [13]) was over 80% throughout. Moreover, the pest or weed control at 100 ppm was over 80% in assay [2]; over 80% in assay [3]; under 0% in assay [4]; under 80% in assay [5]; under 80% in assay [6]. Besides, the pest or weed control at 25 ppm in assay [7] (setting [10]) and in assay [7] (setting [11]) was over 80% in each case.

As for `COc1ccnc(C(=O)N[C@@H](C)C(=O)O[C@@H](C)[C@H](c2ccc(F)cc2C)C(C)C)c1OC(=O)C1CCCC1` [Compound 354], the results for the pest or weed control at 121.5 g/ha in assay [1] (setting [12]) and in assay [1] (setting [13]) were over 80% and under 80%, respectively. Moreover, the pest or weed control at 100 ppm in assay [2] is under 80%; in assay [3], over 80%; in assay [4] it was over 80%; in assay [5], over 80%; in assay [6] it was under 80%. Moreover, the pest or weed control at 25 ppm in assay [7] (setting [10]) and in assay [7] (setting [11]) was over 80% in each case.

For `COc1ccnc(C(=O)N[C@@H](C)C(=O)O[C@@H](C)[C@H](c2ccc(F)cc2C)C(C)C)c1OC(=O)C(C)(C)C` [Compound 374], the pest or weed control at 121.5 g/ha in assay [1] (setting [8]) is over 80%; in assay [1] (setting [9]) it was under 80%. Further, the pest or weed control at 100 ppm is under 80% in assay [2]; over 80% in assay [3]; under 80% in assay [4]; under 80% in assay [5]; under 80% in assay [6]. For the same compound, the pest or weed control at 25 ppm is over 80% in assay [7] (setting [10]) and under 80% in assay [7] (setting [11]).

As to `COc1ccnc(C(=S)N[C@@H](C)C(=O)O[C@@H](C)[C@H](c2ccc(F)cc2C)C(C)C)c1OC(C)=O` [Compound 219], the pest or weed control at 121.5 g/ha in assay [1] (setting [12]) and in assay [1] (setting [13]) was over 80% throughout. In addition, the pest or weed control at 100 ppm in assay [2] is over 80%; in assay [3] it was over 80%; in assay [4], under 80%; in assay [5] it was under 80%; in assay [6], under 80%. In addition, the pest or weed control at 25 ppm in assay [7] (setting [10]) and in assay [7] (setting [11]) was over 80% throughout.

`COc1ccnc(C(=O)N[C@@H](C)C(=O)O[C@@H](C)[C@H](c2ccc(F)cc2C)C(C)C)c1OC(=O)C(C)C` [Compound 216]: the pest or weed control at 121.5 g/ha in assay [1] (setting [12]) and in assay [1] (setting [13]) was over 80% each time. In addition, the pest or weed control at 100 ppm in assay [2] was over 80%; in assay [3], over 80%; in assay [4], under 80%; in assay [5], under 80%; in assay [6], under 80%. Moreover, the pest or weed control at 25 ppm in assay [7] (setting [10]) and in assay [7] (setting [11]) was over 80% throughout.

In the case of `CCC(=O)Oc1c(OC)ccnc1C(=O)N[C@@H](C)C(=O)O[C@@H](C)[C@H](c1ccc(F)cc1C)C(C)C` [Compound 357], the pest or weed control at 121.5 g/ha in assay [1] (setting [12]) and in assay [1] (setting [13]) was over 80% throughout. Besides, the pest or weed control at 100 ppm in assay [2] is under 80%; in assay [3] it was over 80%; in assay [4], under 80%; in assay [5], over 80%; in assay [6], under 80%. For the same compound, the pest or weed control at 25 ppm in assay [7] (setting [10]) and in assay [7] (setting [11]) was over 80% in each case.

The values above are taken from US20180186742A1, “PICOLINAMIDES AS FUNGICIDES” (Dow AgroSciences LLC, priority 2017, published 2018).
